The record followed here is patent publication US11807644B2 (PMV Pharmaceuticals, Inc., priority 2020, dated 2023).

The target in the first experiment is T1, recombinant His-tag Y220C p53 DBD protein (Homo sapiens, UniProt P04637, Y220C).
T1 construct: recombinant His-tag Y220C p53 DBD protein (amino acids #˜94-312)
Kind of experiment: In vitro DNA binding activity assay (TR-FRET): binding of His-tag Y220C p53 DBD to biotin-labeled consensus DNA. It is filed as biochemical. As to conditions: SC150 = concentration to increase DNA binding by […], His-tag Y220C p53 DBD, biotin-labeled consensus DNA. As to the method:
DNA binding activity of the compounds was measured using a TR-FRET (Time-Resolved Fluorescence Resonance Energy Transfer) assay in which recombinant His-tag Y220C p53 DBD protein binds to biotin-labeled consensus DNA. Binding of recombinant His-tag Y220C p53 DBD protein and biotin-labeled consensus DNA was registered by the FRET (fluorescence resonance energy transfer) between allophycocyanin (APC) conjugated anti-His tag antibody and Europium-(Eu) conjugated Streptavidin.
The compounds of TABLES 1-9 (2 mM stock in dimethylsulfoxide) were diluted 3-fold in series in dimethylsulfoxide. 1.2 μL of a compound solution was added to each well of 384-well polypropylene black plates (NUNC). Thirty μL per well of 181 nM recombinant His-tag Y220C p53 DBD protein (amino acids #˜94-312; SEQ ID NO: 1) and 6.1 nM of APC conjugated anti-His tag antibody (Columbia Biosciences) in ice-cold Assay Buffer 1 (50 mM Tris-HCl, pH 7.4, 75 mM KCl, 0.75 mM DTT and 0.2 mg/ml, BSA) were added. As a background control. 30 μL of Assay Buffer 1 containing 6.1 nM of APC anti-His antibody (No Y220C protein) was also added into a second set of serially diluted compound plates. The samples were spun by centrifuge at 1,200 rpm (Eppendorf 5810R Plate centrifuge) for 1 minute and incubated at room temperature (20° C.) for 15 min. The samples were then further incubated at either 27° C. or 29° C. for 60 min. […] The samples were spun by centrifuge at 1,200 rpm for 1 min and incubated at room temperature (20° C.) for 20 min. Assay signals were monitored by reading excitation at 340 nm, and emission fluorescence at 615 nm and 665 nm on an Envision® reader. Normalized TR-FRET (time-resolved fluorescence resonance energy transfer) assay signal (Rn) was calculated by the formula: Rn=[(A−Ba−C×(D−Bd))/(D−Bd)]×(D−Bd) Wherein: • A is the fluorescence intensity of the sample at 665 nm; • D is the fluorescence intensity of the sample at 615 nm; • Ba and Bd are plate backgrounds at 665 nm and 615 nm, respectively; and • Dc is the fluorescence intensity of 0.67 nM Eu-SA in the assay buffer at 615 nm.
The cross-talk factor (C) was determined by the following formula: C=(Ac−Ba)/(Dc−Bd) wherein Ac is the fluorescence intensity of 0.67 nM Europium (Eu) conjugated Streptavidin in the assay buffer at 665 nm.
Regarding `CN1CC[C@@H](Nc2cccc3c2cc(-c2noc(CNC(=O)c4cccnc4)n2)n3CC(F)(F)F)[C@@H](F)C1` [Compound 202B, N-{[3-(4-{[(3S,4R)-3-fluoro-1-methylpiperidin-4-yl]amino}-1-(2,2,2-trifluoroethyl)-1H-indol-2-yl)-1,2,4-oxadiazol-5-yl]methyl}pyridine-3-carboxamide], the “Y220C SC150 (μM)” value was “* (* = 0 μM ≤ SC150 < 0.1 μM)”.

With `CN1CC[C@@H](Nc2cccc3c2cc(-c2noc(CNc4ccc(S(C)(=O)=O)cc4)n2)n3CC(F)(F)F)[C@@H](F)C1` (racemic) [Compound 177B, (+/−)-N-[(3R,4S)-3-fluoro-1-methylpiperidin-4-yl]-2-(5-{[(4-methanesulfonylphenyl)amino]methyl}-1,2,4-oxadiazol-3-yl)-1-(2,2,2-trifluoroethyl)-1H-indol-4-amine], the “Y220C SC150 (μM)” value is “* (* = 0 μM ≤ SC150 < 0.1 μM)”.

Turning to `COC(C)(C)Cn1ccc(C(=O)NCc2nc(-c3cc4c(N[C@@H]5CCN(C)C[C@@H]5F)cccc4n3CC(F)(F)F)no2)c1` [Compound 251B, N-{[3-(4-{[(3S,4R)-3-fluoro-1-methylpiperidin-4-yl]amino}-1-(2,2,2-trifluoroethyl)-1H-indol-2-yl)-1,2,4-oxadiazol-5-yl]methyl}-1-(2-methoxy-2-methylpropyl)-1H-pyrrole-3-carboxamide], the “Y220C SC150 (μM)” value is “* (* = 0 μM ≤ SC150 < 0.1 μM)”.

With `CCN1CC[C@@H](Nc2cccc3c2cc(-c2noc(CNC(=O)c4cnn(C(C)(C)C)c4)n2)n3CC(F)(F)F)[C@@H](F)C1` [Compound 304B, 1-tert-butyl-N-{[3-(4-{[(3S,4R)-1-ethyl-3-fluoropiperidin-4-yl]amino}-1-(2,2,2-trifluoroethyl)-1H-indol-2-yl)-1,2,4-oxadiazol-5-yl]methyl}-1H-pyrazole-4-carboxamide], the “Y220C SC150 (μM)” value is “* (* = 0 μM ≤ SC150 < 0.1 μM)”.

Consider `COCC(C)(C)n1ccc(C(=O)NCc2nc(-c3cc4c(N[C@@H]5CCN(C)C[C@@H]5F)cccc4n3CC(F)(F)F)no2)c1` [Compound 383B, N-{[3-(4-{[(3S,4R)-3-fluoro-1-methylpiperidin-4-yl]amino}-1-(2,2,2-trifluoroethyl)-1H-indol-2-yl)-1,2,4-oxadiazol-5-yl]methyl}-1-(1-methoxy-2-methylpropan-2-yl)-1H-pyrrole-3-carboxamide], for which the “Y220C SC150 (μM)” value is “* (* = 0 μM ≤ SC150 < 0.1 μM)”.

On to `CN1CCC(Nc2cccc3c2cc(-c2nnc(CNC(=O)c4ccc(CN5CCOCC5)cc4)s2)n3CC(F)(F)F)CC1` [Compound 45B, N-[(5-{4-[(1-methylpiperidin-4-yl)amino]-1-(2,2,2-trifluoroethyl)-1H-indol-2-yl}-1,3,4-thiadiazol-2-yl)methyl]-4-[(morpholin-4-yl)methyl]benzamide], for which the “Y220C SC150 (μM)” value was “* (* = 0 μM ≤ SC150 < 0.1 μM)”.

Regarding `CN1CC[C@@H](Nc2cccc3c2cc(-c2noc(CNC(=O)c4ccc5ccn(C)c5c4)n2)n3CC(F)(F)F)[C@@H](F)C1` [Compound 254B, N-{[3-(4-{[(3S,4R)-3-fluoro-1-methylpiperidin-4-yl]amino}-1-(2,2,2-trifluoroethyl)-1H-indol-2-yl)-1,2,4-oxadiazol-5-yl]methyl}-1-methyl-1H-indole-6-carboxamide], the “Y220C SC150 (μM)” value was “* (* = 0 μM ≤ SC150 < 0.1 μM)”.

With `CN1CC[C@@H](Nc2cccc3c2cc(-c2ccc(CNC(=O)c4cnn(C(C)(C)C)c4)cn2)n3CC(F)(F)F)[C@@H](F)C1` [Compound 285B, 1-tert-butyl-N-{[6-(4-{[(3S,4R)-3-fluoro-1-methylpiperidin-4-yl]amino}-1-(2,2,2-trifluoroethyl)-1H-indol-2-yl)pyridin-3-yl]methyl}-1H-pyrazole-4-carboxamide], the “Y220C SC150 (μM)” value is listed as “** (** = 0.1 μM ≤ SC150 < 0.5 μM)”.

As to `CC1(n2ccc(C(=O)NCc3nc(-c4cc5c(N[C@@H]6CCNC[C@@H]6F)cccc5n4CC(F)(F)F)no3)c2)CCOCC1` [Compound 477B, N-{[3-(4-{[(3S,4R)-3-fluoropiperidin-4-yl]amino}-1-(2,2,2-trifluoroethyl)-1H-indol-2-yl)-1,2,4-oxadiazol-5-yl]methyl}-1-(4-methyloxan-4-yl)-1H-pyrrole-3-carboxamide], the “Y220C SC150 (μM)” value is given as “* (* = 0 μM ≤ SC150 < 0.1 μM)”.

For `COCC1(n2ccc(C(=O)NCc3nc(-c4cc5c(N[C@H]6CCNC[C@H]6F)cccc5n4CC(F)(F)F)no3)c2)CC1` [Compound 476B, N-{[3-(4-{[(3R,4S)-3-fluoropiperidin-4-yl]amino}-1-(2,2,2-trifluoroethyl)-1H-indol-2-yl)-1,2,4-oxadiazol-5-yl]methyl}-1-[1-(methoxymethyl)cyclopropyl]-1H-pyrrole-3-carboxamide], the “Y220C SC150 (μM)” value is on record as “* (* = 0 μM ≤ SC150 < 0.1 μM)”.

On to `CN1CCC(Nc2cccc3c2cc(-c2nnc(CNC(=O)c4ccc(C(=O)O)cc4)s2)n3CC(F)(F)F)CC1` [Compound 54B, 4-{[(5-{4-[(1-methylpiperidin-4-yl)amino]-1-(2,2,2-trifluoroethyl)-1H-indol-2-yl}-1,3,4-thiadiazol-2-yl)methyl]carbamoyl}benzoic acid], for which the “Y220C SC150 (μM)” value was “** (** = 0.1 μM ≤ SC150 < 0.5 μM)”.

`CN1CC[C@@H](Nc2cccc3c2cc(-c2noc(CNC(=O)c4ccc(N5CCOCC5)cc4)n2)n3CC(F)(F)F)[C@@H](F)C1` [Compound 260B, N-{[3-(4-{[(3S,4R)-3-fluoro-1-methylpiperidin-4-yl]amino}-1-(2,2,2-trifluoroethyl)-1H-indol-2-yl)-1,2,4-oxadiazol-5-yl]methyl}-4-(morpholin-4-yl)benzamide]: the “Y220C SC150 (μM)” value is reported as “* (* = 0 μM ≤ SC150 < 0.1 μM)”.

In the case of `COCCN1CC[C@@H](Nc2cccc3c2cc(-c2noc(CNC(=O)c4cnn(C(C)(C)C)c4)n2)n3CC(F)(F)F)[C@@H](F)C1` [Compound 338B, 1-tert-butyl-N-{[3-(4-{[(3S,4R)-3-fluoro-1-(2-methoxyethyl)piperidin-4-yl]amino}-1-(2,2,2-trifluoroethyl)-1H-indol-2-yl)-1,2,4-oxadiazol-5-yl]methyl}-1H-pyrazole-4-carboxamide], the “Y220C SC150 (μM)” value is reported as “* (* = 0 μM ≤ SC150 < 0.1 μM)”.

Turning to `COCC(C)(C)n1ccc(C(=O)NCc2nc(-c3cc4c(N[C@@H]5CN(C)CC[C@@H]5F)cccc4n3CC(F)(F)F)no2)c1` [Compound 417B, N-{[3-(4-{[(3R,4S)-4-fluoro-1-methylpiperidin-3-yl]amino}-1-(2,2,2-trifluoroethyl)-1H-indol-2-yl)-1,2,4-oxadiazol-5-yl]methyl}-1-(1-methoxy-2-methylpropan-2-yl)-1H-pyrrole-3-carboxamide], the “Y220C SC150 (μM)” value is given as “* (* = 0 μM ≤ SC150 < 0.1 μM)”.

For the molecule `CN1CC[C@@H](Nc2cccc3c2cc(-c2noc(CNC(=O)c4cc5ccccn5n4)n2)n3CC(F)(F)F)[C@@H](F)C1` [Compound 216B, N-{[3-(4-{[(3S,4R)-3-fluoro-1-methylpiperidin-4-yl]amino}-1-(2,2,2-trifluoroethyl)-1H-indol-2-yl)-1,2,4-oxadiazol-5-yl]methyl}pyrazolo[1,5-a]pyridine-2-carboxamide], the “Y220C SC150 (μM)” value is recorded as “* (* = 0 μM ≤ SC150 < 0.1 μM)”.

As to `Cn1ccc(-c2cc3c(NC4CCS(=O)(=O)CC4)cccc3n2CC(F)(F)F)n1` [Compound 14B, 4-{[2-(1-methyl-1H-pyrazol-3-yl)-1-(2,2,2-trifluoroethyl)-1H-indol-4-yl]amino}-1λ^6-thiane-1,1-dione], the “Y220C SC150 (μM)” value is reported as “**** (**** = 1 μM ≤ SC150 < 10 μM)”.

Still in this experiment, the particulars now being: concentration to increase DNA binding by […], incubated at either 27° C. or 29° C. for 60 min.
On to `Cc1ccc(-c2cc3c(NC4CCS(=O)(=O)CC4)cccc3n2CC(F)(F)F)c(F)c1` [Compound 11A, 4-{[2-(2-fluoro-4-methylphenyl)-1-(2,2,2-trifluoroethyl)-1H-indol-4-yl]amino}-1λ^6-thiane-1,1-dione], for which the “SC150 (μM)” value is “++++ (++++ = 10 μM ≤ SC150 < 35 μM)”.

For the molecule `O=C(NCc1ccc(-c2cc3c(NC4CCS(=O)(=O)CC4)cccc3n2CC(F)(F)F)cc1)Nc1ccccc1` [Compound 19A, 3-[(4-{4-[(1,1-dioxo-1λ^6-thian-4-yl)amino]-1-(2,2,2-trifluoroethyl)-1H-indol-2-yl}phenyl)methyl]-1-phenylurea], the “SC150 (μM)” value is “+ (+ = 0 μM ≤ SC150 < 2 μM)”.
